From patent US20230135093A1, “TRIAZOLYL DERIVATIVES AS GABA A ALPHA5 PAM” (Hoffmann-La Roche Inc., priority 2020, published 2023)

Columns and labels:
h-GABA-A α5β3γ2 [1] = target: T1, h-GABA-A α5β3γ2 (Homo sapiens, UniProt P18507+P31644); test: [3H]flumazenil competition binding assay on membranes of HEK293 cells expressing GABAA receptors; settings: Table 1; displacement of [3H]-Flumazenil (0.5 nM), HEK293 cells expressing human receptors, means of two determinations
T1 construct: expressed in transfected cells; host or cells: Xenopus laevis oocytes, micro-injected with subunit RNA
Protocol: The affinity of compounds at GABAA receptor subtypes was measured by competition for [3H]flumazenil (85 Ci/mmol; Roche) binding to HEK293 cells expressing rat (stably transfected) or human (transiently transfected) receptors of composition α1β3γ2, α2β3γ2, α3β3γ2 and α5β3γ2.
Cell pellets were suspended in Krebs-tris buffer (4.8 mM KCl, 1.2 mM CaCl2, 1.2 mM MgCl2, 120 mM NaCl, 15 mM Tris; pH 7.5; binding assay buffer), homogenized by polytron for ca. 20 sec on ice and centrifuged for 60 min at 4° C. (50000 g; Sorvall, rotor: SM24=20000 rpm). The cell pellets were resuspended in Krebs-tris buffer and homogenized by polytron for ca. 15 sec on ice. Protein was measured (Bradford method, Bio-Rad) and aliquots of 1 mL were prepared and stored at −80° C.
Radioligand binding assays were carried out in a volume of […] (96-well plates) which contained […] of cell membranes, [^3H]-Flumazenil at a concentration of 1 nM for α1, α2, α3 subunits and 0.5 nM for α5 subunits and the test compound in the range of […]. Nonspecific binding was defined by 10^−5 M diazepam and typically represented less than 5% of the total binding. Assays were incubated to equilibrium for 1 hour at 4° C. and harvested onto GF/C uni-filters (Packard) by filtration using a Packard harvester and washing with ice-cold wash buffer (50 mM Tris; pH 7.5). After drying, filter-retained radioactivity was detected by liquid scintillation counting. Ki values were calculated using Excel-Fit (Microsoft) and are the means of two determinations.
In a preferred embodiment the compounds of the invention are binding selective for the α5 subunit relative to the α1, α2 and α3 subunit. Representative test results, obtained by the above described assay measuring binding affinity to HEK293 cells expressing human (h) receptors, are shown in the Table below.

h-GABA-A α5β3γ2 [2] = target: T1, h-GABA-A α5β3γ2; test: Two-electrode voltage clamp electrophysiology in Xenopus oocytes expressing GABAA receptors (modulation of GABA EC20 current); assay type: cell-based; settings: for Efficacy (GABA) % / Fold increase h-GABA-A α5β3γ2 oocyte: Table 1; for Efficacy (GABA) %: % modulation of GABA EC20 = 100*(Fold increase-1); for Fold increase h-GABA-A α5β3γ2 oocyte: Xenopus oocytes, GABA EC20, test compound at approximatively 30 fold its Ki; for Fold increase: positive controls
Protocol: Xenopus laevis oocytes at maturation stages V-VI were used for the expression of cloned mRNA encoding GABAA receptor subunits. Oocytes ready for RNA micro-injection were bought from Ecocyte, Castrop-Rauxel, Germany and stored in modified Barth's medium (composition in mM: NaCl 88, KCl 1, NaHCO3 2.4, HEPES 10, MgSO4 0.82, CaNO3 0.33, CaCl2 0.33, pH=7.5) at 20° C. until the experiment.
Oocytes were plated in 96-well plates to be used in an automated instrument (Robo-ocyte, MultiChannelSystems, Reutlingen, Germany) for microinjection and electrophysiological recordings. Approximately 50 nl of an aqueous solution containing the RNA transcripts for the subunits of the desired GABAA receptor was injected into each oocyte. RNA concentrations ranged between 0.3 and 16 ng/μl/subunit and were adjusted in pilot experiments to obtain GABA responses of a suitable size and a maximal effect of the reference modulator, Beta-CCM (3-CCM), a betacarboline negative allosteric modulator (NAM) at the GABAA receptor benzodiazepine (BZD) binding site or Midazolam, a benzodiazepine positive allosteric modulator (PAM) at the GABAA receptor benzodiazepine (BZD) binding site. The concentration of the γ2 subunit encoding RNA usually was 5- to 10-fold higher than the RNAs encoding the other subunits. Oocytes were kept in modified Barth's medium (composition in mM: NaCl 88, KCl 1, NaHCO3 4, HEPES 10, MgSO4 0.82, CaNO3 0.33, CaCl2 0.33, pH=7.5) at 20° C. until the experiment.
Electrophysiological experiments were performed on days 3 to 5 after the micro-injection of mRNA. During the experiment the oocytes were constantly superfused by a solution containing (in mM) NaCl 90, KCl 1, HEPES 5, MgCl2 1, CaCl2 1 (pH 7.4). Oocytes were impaled by two glass microelectrodes (resistance: 0.4 MQ) which were filled with a solution containing KCl 1M+K-acetate 1.5 M and voltage-clamped to −80 mV. The recordings were performed at room temperature using the Roboocyte two-electrode voltage clamp system (Multichannelsystem). After an initial equilibration period of 1.5 min GABA was added for 1.5 min at a concentration evoking approximately 20% of a maximal current response (EC20). After another rest interval of 2.5 min GABA was again added evoking a response of similar amplitude and shape. 0.5 min after the onset of this second GABA application the test compound, at a concentration corresponding to approximatively 30 fold its Ki, was added while GABA was still present. Current traces were recorded at a digitization rate of 10 Hz during and shortly before and after the GABA application.
Each compound and concentration was tested on at least 3 oocytes. Different oocytes were used for different compound concentrations. β-CCM, a negative allosteric modulator, or Midazolam, a positive allosteric modulators, were tested on a few (3-6) oocytes on each 96-well plate for a positive control at a maximally effective. β-CCM inhibited the GABA-evoked current by approximatively 50% (Fold increase 0.5), while Midazolam potentiated the GABA-induced current by approximatively 150% (Fold increase 2.5).
For the analysis, the digitized current traces of the first and second GABA response were superimposed and, if necessary, rescaled to equal maximal amplitudes. The ratio between the two responses during the time interval of test compound application was calculated point by point. The extremum of the resulting “ratio trace” was taken as the efficacy (“Fold increase”) of the compound expressed as “% modulation of GABA EC20” (100*(Fold increase-1)).

[3] = positive control, maximally effective concentration, 3-6 oocytes per 96-well plate
[4] = maximally effective concentration

SMILES	Ki (h-GABA-A α5β3γ2 [1])	Efficacy (GABA) % (h-GABA-A α5β3γ2 [2])	Fold increase h-GABA-A α5β3γ2 oocyte (h-GABA-A α5β3γ2 [2])	potentiated the GABA-induced current (h-GABA-A α5β3γ2 [2]; [3])	Fold increase (h-GABA-A α5β3γ2 [2]; [4])	inhibited the GABA-evoked current (h-GABA-A α5β3γ2 [2]; [3])
Cc1ccc(-c2nnn(C)c2Cn2ncc(N3C[C@H](C)O[C@@H](C)C3)cc2=O)cn1 (racemic) [Example 12, 2-[[3-methyl-5-(6-methyl-3-pyridyl)triazol-4-yl]methyl]-5-[rac-(2S,6S)-2,6-dimethylmorpholin-4-yl]pyridazin-3-one]	2.6 nM	191%	2.91	–	–	–
Cc1nnn(-c2ccc(Cl)cc2F)c1Cn1ncc(N2C[C@H](C)O[C@@H](C)C2)cc1=O (racemic) [Example 37, 2-[[3-(4-chloro-2-fluoro-phenyl)-5-methyl-triazol-4-yl]methyl]-5-[rac-(2S,6S)-2,6-dimethylmorpholin-4-yl]pyridazin-3-one]	3.6 nM	135%	2.35	–	–	–
Cc1ccc(-n2nnc(C)c2Cn2ncc(N3C[C@@H](C)O[C@@H](C)C3)cc2=O)cn1 [Example 1, 5-(cis-2,6-dimethylmorpholin-4-yl)-2-((5-methyl-3-(6-methylpyridin-3-yl)triazol-4-yl)methyl)pyridazin-3-one]	34.4 nM	190%	2.9	–	–	–
Cc1ccc(-c2nnn(C)c2Cn2ncc(N3C[C@@H](C)O[C@@H](C)C3)cc2=O)cn1 [Example 2, 5-(cis-2,6-dimethylmorpholin-4-yl)-2-((3-methyl-5-(6-methylpyridin-3-yl)triazol-4-yl)methyl)pyridazin-3-one]	4.7 nM	230%	–	–	–	–
C[C@@H]1CN(c2cnn(Cc3c(-c4ccc(Cl)cc4F)nnn3C)c(=O)c2)C[C@H](C)O1 [Example 3, 2-((5-(4-chloro-2-fluoro-phenyl)-3-methyl-triazol-4-yl)methyl)-5-(cis-2,6-dimethylmorpholin-4-yl)pyridazin-3-one]	1.2 nM	124%	2.24	–	–	–
Cc1nnn(-c2ccc(Cl)cc2F)c1Cn1ncc(N2CCOCC2)cc1=O [Example 4, 2-((3-(4-chloro-2-fluoro-phenyl)-5-methyl-triazol-4-yl)methyl)-5-morpholino-pyridazin-3-one]	15.6 nM	97%	1.97	–	–	–
Cc1nnn(-c2ccc(Cl)cc2F)c1Cn1ncc(N(C)C)cc1=O [Example 5, 2-((3-(4-chloro-2-fluoro-phenyl)-5-methyl-triazol-4-yl)methyl)-5-(dimethylamino)pyridazin-3-one]	18.4 nM	58%	1.58	–	–	–
Cc1nnn(-c2ccc(Cl)cc2F)c1Cn1ncc(N2CCN(C(=O)C3CC3)CC2)cc1=O [Example 6, 2-((3-(4-chloro-2-fluoro-phenyl)-5-methyl-triazol-4-yl)methyl)-5-(4-(cyclopropane-carbonyl)piperazin-1-yl)pyridazin-3-one]	71.8 nM	121%	2.21	–	–	–
Cc1nnn(-c2ccc(Cl)cc2F)c1Cn1ncc(N2C[C@@H](C)O[C@@H](C)C2)cc1=O [Example 7, 2-((3-(4-chloro-2-fluoro-phenyl)-5-methyl-triazol-4-yl)methyl)-5-((2S,6R)-2,6-dimethylmorpholin-4-yl)pyridazin-3-one]	5.8 nM	164%	2.64	–	–	–
Cc1ccc(-c2nnn(C)c2Cn2ncc(N3CCCC3)cc2=O)cn1 [Example 8, 2-((3-methyl-5-(6-methyl-3-pyridyl)triazol-4-yl)methyl)-5-pyrrolidin-1-yl-pyridazin-3-one]	20.9 nM	130%	2.3	–	–	–
Cc1ccc(-c2nnn(C)c2Cn2ncc(N3CCOCC3)cc2=O)cn1 [Example 9, 2-[[3-methyl-5-(6-methyl-3-pyridyl)triazol-4-yl]methyl]-5-morpholino-pyridazin-3-one]	16.8 nM	135%	2.35	–	–	–
Cc1ccc(-c2nnn(C)c2Cn2ncc(N3CCC(C)(C)C3)cc2=O)cn1 [Example 10, 5-(3,3-dimethylpyrrolidin-1-yl)-2-[[3-methyl-5-(6-methyl-3-pyridyl)triazol-4-yl]methyl]pyridazin-3-one]	4.4 nM	201%	3.01	–	–	–
Cc1ccc(-c2nnn(C)c2Cn2ncc(N3CCOC(C)(C)C3)cc2=O)cn1 [Example 11, 5-(2,2-dimethylmorpholin-4-yl)-2-[[3-methyl-5-(6-methyl-3-pyridyl)triazol-4-yl]methyl]pyridazin-3-one]	1.2 nM	48%	1.48	–	–	–
Cc1nnn(-c2ccc(Cl)cc2)c1Cn1ncc(N(C)C)cc1=O [Example 13, 2-[[3-(4-chlorophenyl)-5-methyl-triazol-4-yl]methyl]-5-(dimethylamino)pyridazin-3-one]	31.9 nM	31%	1.31	–	–	–
Cc1nnn(-c2ccc(Cl)cc2)c1Cn1ncc(N2CCNCC2)cc1=O [Example 14, 2-[[3-(4-chlorophenyl)-5-methyl-triazol-4-yl]methyl]-5-piperazin-1-yl-pyridazin-3-one]	39.6 nM	72%	1.72	–	–	–
CN(C)c1cnn(Cc2c(-c3ccc(Cl)cc3F)nnn2C)c(=O)c1 [Example 15, 2-[[5-(4-chloro-2-fluoro-phenyl)-3-methyl-triazol-4-yl]methyl]-5-(dimethylamino)pyridazin-3-one]	3.8 nM	48%	1.48	–	–	–
Cn1nnc(-c2ccc(Cl)cc2F)c1Cn1ncc(N2CCOCC2)cc1=O [Example 16, 2-[[5-(4-chloro-2-fluoro-phenyl)-3-methyl-triazol-4-yl]methyl]-5-morpholino-pyridazin-3-one]	2.2 nM	81%	1.81	–	–	–
Cc1ncc2n1-c1ccc(Cl)cc1C(c1ccccc1F)=NC2 [Midazolam, reference compound]	–	–	–	~150%	~2.5	–
COC(=O)c1cc2c(cn1)[nH]c1ccccc12 [β-CCM, reference compound]	–	–	–	–	~0.5	~50%
